From ChEMBL document CHEMBL3784977, “Acetylcholinesterase and carbonic anhydrase inhibitory properties of novel urea and sulfamide derivatives incorporating dopaminergic 2-aminotetralin scaffolds” (Bioorg Med Chem, 2016)

Legend:
Acetylcholinesterase [1] = target: T1, Acetylcholinesterase (Homo sapiens, UniProt P22303)
Description: Inhibition of AChE (unknown origin) using acetylcholine iodate as substrate preincubated for 10 mins followed by substrate addition by Lineweaver-Burk plot analysis

Acetylcholinesterase [2] = target: T1, Acetylcholinesterase; remark: listed apart in the source
Description: Inhibition of AChE (unknown origin) using acetylcholine iodate as substrate preincubated for 10 mins followed by substrate addition by Ellman's method

Acetylcholinesterase [3] = target: Acetylcholinesterase (Electrophorus electricus, UniProt O42275)
Acetylcholinesterase (Electrophorus electricus, UniProt O42275), sequence (O42275 whole entry): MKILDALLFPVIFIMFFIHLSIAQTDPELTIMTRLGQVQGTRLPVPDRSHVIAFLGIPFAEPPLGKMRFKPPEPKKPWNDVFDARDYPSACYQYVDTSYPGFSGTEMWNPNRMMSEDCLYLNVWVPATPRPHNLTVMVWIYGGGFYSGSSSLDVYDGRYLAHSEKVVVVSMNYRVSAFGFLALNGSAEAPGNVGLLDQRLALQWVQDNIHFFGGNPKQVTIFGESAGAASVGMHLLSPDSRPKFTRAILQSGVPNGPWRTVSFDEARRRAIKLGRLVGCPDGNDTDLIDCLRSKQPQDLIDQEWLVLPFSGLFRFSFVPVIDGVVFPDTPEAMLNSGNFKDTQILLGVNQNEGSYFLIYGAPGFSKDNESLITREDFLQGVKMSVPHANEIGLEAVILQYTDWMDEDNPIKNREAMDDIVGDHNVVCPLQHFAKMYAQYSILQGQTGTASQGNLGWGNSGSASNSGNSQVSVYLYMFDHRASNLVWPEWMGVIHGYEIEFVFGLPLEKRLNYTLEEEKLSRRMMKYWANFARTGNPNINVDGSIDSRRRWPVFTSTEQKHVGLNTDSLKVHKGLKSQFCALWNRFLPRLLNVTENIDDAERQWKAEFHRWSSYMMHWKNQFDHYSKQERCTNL
Description: Inhibition of electric eel AChE using acetylthiocholine iodide as substrate preincubated for 10 mins followed by substrate addition by Lineweaver-Burk plot analysis

T1 sequence (P22303 whole entry): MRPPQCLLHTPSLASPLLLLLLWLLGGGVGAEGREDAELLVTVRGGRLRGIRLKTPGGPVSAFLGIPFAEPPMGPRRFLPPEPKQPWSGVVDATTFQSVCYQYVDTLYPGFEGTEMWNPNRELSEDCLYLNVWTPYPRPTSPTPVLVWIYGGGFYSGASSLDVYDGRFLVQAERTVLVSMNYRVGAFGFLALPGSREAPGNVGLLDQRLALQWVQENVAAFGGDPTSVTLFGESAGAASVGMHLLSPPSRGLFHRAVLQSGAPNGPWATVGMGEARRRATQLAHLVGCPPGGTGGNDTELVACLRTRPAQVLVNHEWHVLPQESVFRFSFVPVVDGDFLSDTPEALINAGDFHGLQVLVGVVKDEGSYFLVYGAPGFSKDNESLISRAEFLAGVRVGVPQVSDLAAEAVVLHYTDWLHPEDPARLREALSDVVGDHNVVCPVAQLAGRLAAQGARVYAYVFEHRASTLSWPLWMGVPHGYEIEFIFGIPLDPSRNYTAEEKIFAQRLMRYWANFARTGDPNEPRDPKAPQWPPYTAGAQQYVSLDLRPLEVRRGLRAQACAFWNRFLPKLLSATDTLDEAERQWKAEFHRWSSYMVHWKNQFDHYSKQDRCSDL

| Compound | Ki (Acetylcholinesterase [1]) | IC50 (Acetylcholinesterase [2]) | Ki (Acetylcholinesterase [3]) |
| --- | --- | --- | --- |
| CN(C)C(=O)N[C@H]1CCc2ccc(O)cc2C1 | 1.74 nM | 103 nM | – |
| CN(C)C(=O)NC1CCc2cc(O)ccc2C1 (stereo not drawn) | 1.33 nM | 7.16 nM | – |
| CN(C)S(=O)(=O)N[C@H]1CCc2cc(O)ccc2C1 | 1.22 nM | 27.9 nM | – |
| COc1ccc2c(c1)CC(NS(=O)(=O)N(C)C)CC2 (stereo not drawn) | 0.83 nM | 15.8 nM | – |
| COc1ccc2c(c1)CCC(NC(=O)N(C)C)C2 (stereo not drawn) | 0.67 nM | 16.4 nM | – |
| COc1cccc2c1CC[C@H](NC(=O)N(C)C)C2 | 0.98 nM | 19.9 nM | – |
| CN(C)S(=O)(=O)NC1CCc2ccc(O)cc2C1 (stereo not drawn) | 0.72 nM | 37 nM | – |
| CN(C)S(=O)(=O)NC1CCc2c(O)cccc2C1 (stereo not drawn) | 1.34 nM | 30.9 nM | – |
| CN(C)C(=O)N[C@H]1CCc2c(O)cccc2C1 | 1.59 nM | 132 nM | – |
| COc1ccc2c(c1)CCC(NS(=O)(=O)N(C)C)C2 (stereo not drawn) | 1.05 nM | 17 nM | – |
| COc1ccc2c(c1)C[C@@H](NC(=O)N(C)C)CC2 | 1.06 nM | 22.4 nM | – |
| Oc1ccc(O)cc1 [HYDROQUINONE] | – | – | 1.22 nM |
